Results on two molecules are retold here after US20040132731A1, “Novel combination” (priority 2002, published 2004).

The test system of this assay is spontaneously hypertensive rat (SHR). Nature of the assay: Animal study: change in mean arterial pressure in anaesthetised spontaneously hypertensive rats. Format: in vivo. As to conditions: anaesthetised male SHR; for Change in mean arterial pressure from vehicle: n=6/group, infusion at 0.5 mL/h, candesartan 0.02 μg/kg/min, PDE5 inhibitor 15.61 μg/kg/min, combination 15.61 μg/kg/min+0.02 μg/kg/min; for fall in MAP: text restatement of the table, combination vs sum of the two individual effects p=0.058. As to the method: The spontaneously hypertensive rat (SHR) is a widely used model of human hypertension. Anaesthetised male SHRs (250-450 g) were surgically prepared for the measurement of systolic, diastolic and mean arterial pressure. Cannulae were inserted into the jugular veins and carotid artery. The trachea was also cannulated to facilitate respiration. Following a 60 min post-surgical stabilisation period, arterial blood pressure and heart rate were recorded via a pressure transducer and PoNeMah data acquisition system.
Solutions of candesartan (0.02, μg/kg/min), PDE5 inhibitor (15.61 μg/kg/min) and a combination of PDE5 inhibitor and candesartan (15.61 μg/kg/min+0.02, μg/kg/min) were infused as appropriate at a rate of 0.5 mL/h. Control animals received compound vehicle (5% DMSO, 10% PEG200, 85% water for injection (v/v)).
Baseline haemodynamic parameters were recorded. Animals (n=6/group) were randomised to receive a primed infusion of either vehicle or PDE5 Inhibitor for a period of 60 min. At this point, these groups were further randomised to receive either (i) vehicle or PDE5 inhibitor alone, (ii) candesartan alone or (iii) a combination of candesartan and PDE5 inhibitor. Changes in mean arterial pressure were monitored during the study period.

Regarding `CCc1c2nc(-c3cc(S(=O)(=O)N4CCN(CC)CC4)cnc3OCCOC)[nH]c(=O)c2nn1Cc1ccccn1` [PDE5 inhibitor, 3-ethyl-5-[5-(4-ethylpiperazin-1-ylsulphonyl)-2-(2-methoxyethoxy)pyridin-3-yl]-2 (pyridin-2-yl)methyl-2,6-dihydro-7H-pyrazolo[4,3-d]pyrimidin-7-one], the “Change in mean arterial pressure from vehicle” value is −7.4 mmHg and the “fall in MAP” value is listed as 7.4 mmHg.

For `CCOc1nc2cccc(C(=O)O)c2n1Cc1ccc(-c2ccccc2-c2nnn[nH]2)cc1` [candesartan], the “Change in mean arterial pressure from vehicle” value was −3.2 mmHg and the “fall in MAP” value is listed as 3.2 mmHg.
